{"source": "patent US20020099070A1", "about": "“Dihydronaphthyridine potassium channel openers” (priority 2000, published 2002)", "key": {"[1]": {"system": "Landrace pig bladder strips", "experiment": "Functional potassium channel opening activity in isolated bladder strips (field-stimulated twitch)", "settings": "for Index: ED50 for P1075 divided by ED50 for test agonist, averaged over tissues; for Efficacy (% P1075): maximal efficacy relative to P1075, field stimulation 0.05 Hz, 0.5 ms, 20 volts; for pD2 / EC50: negative logarithm of ED50; for EC50: Sus scrofa, read-out: pD2 (converted)", "protocol": "Compounds were evaluated for functional potassium channel opening activity using tissue strips obtained from Landrace pig bladders.\nLandrace pig bladders were obtained from female Landrace pigs of 9-30 kg. Landrace pigs were euthanized with an intraperitoneal injection of pentobarbital solution, Somlethal® , J. A. Webster Inc., Sterling, Mass. The entire bladder was removed and immediately placed into Krebs Ringer bicarbonate solution (composition, mM: NaCl, 120; NaHCO3, 20; dextrose, 11; KCl, 4.7; CaCl2, 2.5; MgSO4, 1.5; KH2PO4, 1.2; K2EDTA, 0.01, equilibrated with 5% CO2/95% O2 pH 7.4 at 37° C.). Propranolol (0.004 mM) was included in all of the assays to block β-adrenoceptors. The trigonal and dome portions were discarded. Strips 3-5 millimeters (mm) wide and 20 mm long were prepared from the remaining tissue cut in a circular fashion. The mucosal layer was removed. One end was fixed to a stationary glass rod and the other to a Grass FT03 transducer at a basal preload of 1.0 g. Two parallel platinum electrodes were included in the stationary glass rod to provide field stimulation of 0.05 Hz, 0.5 milli-seconds at 20 volts. This low frequency stimulation produced a stable twitch response of 100-500 centigrams. Tissues were allowed to equilibrate for at least 60 minutes and primed with 80 mM KCl. A control concentration response curve (cumulative) was generated for each tissue using the potassium channel opener P1075 as the control agonist. […] After a 60 minute rinsing period, a concentration response curve (cumulative) was generated for the test agonist in the same fashion as that used for the control agonist P1075. The maximal efficacy of each compounds (expressed as % relative to P1075) is reported. The amount of agent necessary to cause 50% of the agent's maximal response (ED50) was calculated using “ALLFIT” (DeLean et al., Am. J. Physiol., 235, E97 (1980)), and agonist potencies were expressed as pD2 (the negative logarithm). Agonist potencies were also expressed as an index relative to P1075. The index was calculated by dividing the ED50 for P1075 by the ED50 for the test agonist in a give tissue. Each tissue was used for only one test agonist, and the indices obtained from each tissue were averaged to provide an average index of potency."}, "[2]": {"system": "primary cultured guinea-pig urinary bladder (GPB) cells", "experiment": "Membrane hyperpolarization (MHP) assay, DiBAC(4)3 / FLIPR", "format": "cell-based", "settings": "for Maximal Response (% P1075) / Emax: maximal steady-state hyperpolarization, normalized to 10 μM P1075 = 100%; for EC50: membrane hyperpolarization in GPB cells; for Emax: read-out: Maximal Response (% P1075)", "protocol": "Compounds were evaluated for potassium channel opening activity using primary cultured guinea-pig urinary bladder (GPB) cells.\nFor the preparation of urinary bladder smooth muscle cells, urinary bladders were removed from male guinea-pigs (Hartley, Charles River, Wilmington, Mass.) weighing 300-400 g and placed in ice-cold Ca^2+-free Krebs solution (Composition, mM: KCl, 2.7; KH2PO4, 1.5; NaCl, 75; Na2HPO4, 9.6; Na2HPO4.7H2O, 8; MgSO4, 2; glucose, 5; HEPES, 10; pH 7.4). Cells were isolated by enzymatic dissociation as previously described with minor modifications in Klockner, U. and Isenberg, G., Pflugers Arch. 1985, 405, 329-339, hereby incorporated by reference. The bladder was cut into small sections and incubated in 5 mL of the Kreb's solution containing 1 mg/mL collagenase (Sigma, St. Louis, Mo.) and 0.2 mg/mL pronase (Calbiochem, La Jolla, Calif.) with continuous stirring in a cell incubator for 30 minutes. The mixture was then centrifuged at 1300×g for 5 minutes, and the pellet resuspended in Dulbecco's PBS (GIBCO, Gaithersburg, Md.) and recentrifuged to remove residual enzyme. The cell pellet was resuspended in 5 mL growth media (composition: Dulbecco's modified Eagle's medium supplemented with 10% fetal bovine serum, 100 units/mL penicillin, 100 units/mL streptomycin and […] amphotericin B) and further dissociated by pipetting the suspension through a flame-polished Pasteur pipette and passing it through a polypropylene mesh membrane (Spectrum, Houston, Tex.). The cell density was adjusted to 100,000 cells/mL by resuspension in growth media. Cells were plated in clear-bottomed black 96-well plates (Packard) for membrane potential studies at a density of 20,000 cells/well and maintained in a cell incubator with 90% air: 10% CO2 until confluent. Cells were confirmed to be of smooth muscle type by cytoskeletal staining using a monoclonal mouse anti human-α-smooth muscle actin (Biomeda, Foster City, Calif.).\nFunctional activity at potassium channels was measured by evaluating changes in membrane potential using the bis-oxonol dye DiBAC(4)3 (Molecular Probes) in a 96-well cell-based kinetic assay system, Fluorescent Imaging Plate Reader (FLIPR) (K. S. Schroeder et al., J. Biomed. Screen., v. 1 pp. 75-81 (1996)), hereby incorporated by reference. DiBAC(4)3 is an anionic potentiometric probe which partitions between cells and extracellular solution in a membrane potential-dependent manner. With increasing membrane potential (for example, K^+ depolarization), the probe fuither partitions into the cell; this is measured as an increase in fluorescence due to dye interaction with intracellular lipids and proteins. Conversely, decreasing membrane potential (hyperpolarization by potassium channel openers) evokes a decrease in fluorescence.\nConfluent guinea-pig urinary bladder cells cultured in black clear-bottomed 96-well plates were rinsed twice with […] assay buffer (composition, mM: HEPES, 20; NaCl, 120; KCl, 2; CaCl2, 2; MgCl2, 1; glucose, 5; pH 7.4 at 25° C.) containing 5 μM DiBAC(4)3 and incubated with […] of the buffer in a cell incubator for 30 minutes at 37° C. to ensure dye distribution across the membrane. After recording the baseline fluorescence for 5 minutes, the reference or test compounds, prepared at 10 times the concentration in the assay buffer, were added directly to the wells. Changes in fluorescence were monitored for an additional 25 minutes. Hyperpolarization responses were corrected for any background noise and were normalized to the response observed with 10 μM of the reference compound P1075, N″-cyano-N-(tert-pentyl)-N′-(3-pyridinyl)guanidine, which was assigned as 100%. P1075 is a potent opener of smooth muscle KATP channels (Quast et al., Mol. Pharmacol., v. 43 pp. 474-481 (1993)) and was prepared using the procedures described in (Manley, J. Med. Chem. (1992) 35, 2327-2340), hereby incorporated by reference. […]"}}, "data": [{"smiles": "CC1=C(C#N)C(c2ccc(F)c(Br)c2)c2c(cc[nH]c2=O)N1", "note": "(centres unmarked) [Example 6, 4-(3-bromo-4-fluorophenyl)-3-cyano-2-methyl-4,6-dihydro[1,6]naphthyridin-5(1H)-one]", "values": [{"measurement": "Index", "setting": "[1]", "result": 0.0318}, {"measurement": "Efficacy (% P1075)", "setting": "[1]", "result": 67, "unit": "% P1075"}, {"measurement": "pD2", "setting": "[1]", "result": 4.89}, {"measurement": "Maximal Response (% P1075)", "setting": "[2]", "result": 102, "unit": "% P1075"}, {"measurement": "EC50", "setting": "[2]", "result": 1500, "unit": "nM"}]}, {"smiles": "CCC(C)(C)NC(=NC#N)Nc1cccnc1", "note": "[Example P1075, N″-cyano-N-(tert-pentyl)-N′-(3-pyridinyl)guanidine, reference compound]", "values": [{"measurement": "effect on stimulated twitch / contractions of the bladder", "setting": "[1]; P1075: concentration range 10^−9 to 10^−5 M, cumulative", "result": "completely eliminated the stimulated twitch"}]}, {"smiles": "CC1=C(C#N)C(c2ccc(F)c(Br)c2)c2c(ccnc2Cl)N1", "note": "(centres unmarked) [Example 34, 4-(3-bromo-4-fluorophenyl)-5-chloro-3-cyano-2-methyl-1,4-dihydro[1,6]naphthyridine]", "values": [{"measurement": "Index", "setting": "[1]", "result": 0.2089}, {"measurement": "Efficacy (% P1075)", "setting": "[1]", "result": 85, "unit": "% P1075"}, {"measurement": "pD2", "setting": "[1]", "result": 6.14}, {"measurement": "Maximal Response (% P1075)", "setting": "[2]", "result": 90, "unit": "% P1075"}, {"measurement": "EC50", "setting": "[2]", "result": 6, "unit": "nM"}]}, {"smiles": "CC1=C(C#N)C(c2ccc(F)c(Br)c2)c2c(ccn(C)c2=O)N1", "note": "(centres unmarked) [Example 7, 4-(3-bromo-4-fluorophenyl)-3-cyano-2,6-dimethyl-4,6-dihydro[1,6]naphthyridin-5(1H)-one]", "values": [{"measurement": "Index", "setting": "[1]", "result": 2.826}, {"measurement": "EC50", "setting": "[1]", "result": 10.2, "unit": "nM"}, {"measurement": "Efficacy (% P1075)", "setting": "[1]", "result": 100, "unit": "% P1075"}]}, {"smiles": "CC1=C(C#N)C(c2ccc(F)c(Br)c2)c2c(ccnc2Cl)N1", "note": "(centres unmarked) [Example 33, 4-(3-bromo-4-fluorophenyl)-5-chloro-3-cyano-2-methyl-1,4-dihydro[1,6]naphthyridine]", "values": [{"measurement": "Index", "setting": "[1]", "result": 0.0353}, {"measurement": "Efficacy (% P1075)", "setting": "[1]", "result": 61, "unit": "% P1075"}, {"measurement": "pD2", "setting": "[1]", "result": 5.31}, {"measurement": "Maximal Response (% P1075)", "setting": "[2]", "result": 65, "unit": "% P1075"}, {"measurement": "EC50", "setting": "[2]", "result": 28, "unit": "nM"}]}, {"smiles": "CC1=C(C#N)C(c2ccc(F)c(C(F)(F)F)c2)C2=C(CCOC2=O)N1", "note": "(centres unmarked) [Example 26, 4-[4-fluoro-3-(trifluoromethyl)phenyl]-3-cyano-2-methyl-1,4,7,8-tetrahydro-5H-pyrano[4,3-b]pyridin-5-one]", "values": [{"measurement": "Index", "setting": "[1]", "result": 0.6715}, {"measurement": "EC50", "setting": "[1]", "result": 275, "unit": "nM"}, {"measurement": "Efficacy (% P1075)", "setting": "[1]", "result": 98, "unit": "% P1075"}]}, {"smiles": "COc1nccc2c1C(c1ccc(F)c(Br)c1)C(C#N)=C(C)N2", "note": "(centres unmarked) [Example 38, 4-(3-bromo-4-fluorophenyl)-3-cyano-2-methyl-5-methoxy-1,4-dihydro[1,6]naphthyridine]", "values": [{"measurement": "Index", "setting": "[1]", "result": 0.2488}, {"measurement": "EC50", "setting": "[1]", "result": 1000, "unit": "nM"}, {"measurement": "Efficacy (% P1075)", "setting": "[1]", "result": 78, "unit": "% P1075"}]}, {"smiles": "CC1=C(C#N)C(c2ccc(F)c(Br)c2)c2c(cc[nH]c2=O)N1", "note": "(centres unmarked) [Example 5, 4-(3-bromo-4-fluorophenyl)-3-cyano-2-methyl-4,6-dihydro[1,6]naphthyridin-5(1H)-one]", "values": [{"measurement": "Index", "setting": "[1]", "result": 1.2740}, {"measurement": "Efficacy (% P1075)", "setting": "[1]", "result": 98, "unit": "% P1075"}, {"measurement": "pD2", "setting": "[1]", "result": 6.85}, {"measurement": "Emax", "setting": "[2]; Cavia porcellus", "result": 114, "unit": "%"}, {"measurement": "EC50", "setting": "[2]", "result": 17, "unit": "nM"}]}, {"smiles": "CC1=C(C#N)C(c2ccc(F)c(Br)c2)C2=C(CCNC2=O)N1", "note": "(centres unmarked) [Example 2, 4-(3-bromo-4-fluorophenyl)-3-cyano-2-methyl-4,6,7,8-tetrahydro[1,6]naphthyridin-5(1H)-one]", "values": [{"measurement": "Index", "setting": "[1]", "result": 0.2653}, {"measurement": "EC50", "setting": "[1]", "result": 692, "unit": "nM"}, {"measurement": "Efficacy (% P1075)", "setting": "[1]", "result": 60, "unit": "% P1075"}, {"measurement": "Emax", "setting": "[2]; Cavia porcellus", "result": 122, "unit": "%"}, {"measurement": "EC50", "setting": "[2]; Cavia porcellus", "result": 100, "unit": "nM"}]}, {"smiles": "CC1=C(C#N)C(c2ccc(F)c(Br)c2)c2c(cc[nH]c2=S)N1", "note": "(centres unmarked) [Example 35, 4-(3-bromo-4-fluorophenyl)-3-cyano-2-methyl-4,6-dihydro[1,6]naphthyridine-5(1H)-thione]", "values": [{"measurement": "Index", "setting": "[1]", "result": 0.3068}, {"measurement": "EC50", "setting": "[1]", "result": 794, "unit": "nM"}, {"measurement": "Efficacy (% P1075)", "setting": "[1]", "result": 77, "unit": "% P1075"}]}]}
